Results: patent US20260207649A1, “LSD1 INHIBITOR AND PRMT6 INHIBITOR FOR USE IN THE TREATMENT OF A DISEASE ASSOCIATED WITH GAIN-OF-FUNCTION OF ANDROGEN RECEPTOR (AR) AND/OR WITH OVEREXPRESSION OF AN AR COACTIVATOR” (FONDAZIONE TELETHON ETS(30%), priority 2022, published 2026)
Where two headings read alike, the source gives them in different places. Values belong to the molecule of their own block, whether it stands above or below them.

What was measured:
polyQ-expanded AR = test: Transcriptional (ARE-luciferase) assay in HEK293T cells expressing polyQ-expanded AR; type: cell-based, human; conditions: AR65Q, DHT 10 nM, 16 h; for polyQ-expanded AR transactivation induced by DHT: mock-transfected, inhibitor 10 μM
Experimental: (§1) Cell Cultures, Transfection, and Transduction MN1^9 and HEK293T (ATCC) cells were cultured and plated in DMEM complete medium [Dulbecco's Modified Eagle Medium supplemented with 10% fetal bovine serum (FBS), 1% penicillin/streptomycin (pen/strep), and 1% L-glutamine] and LNCaP cells in RPMI complete medium (Gibco Roswell Park Memorial Institute supplemented with 10% FBS, 1% penicillin/streptomycin, and 1% L-glutamine). C2C12 cells were cultured and differentiated to myotubes. Cells were kept in a humidified incubator with 5% CO2 at 37° C. HEK293T cells were transfected with polyethyleneimine (PEI) linear MW 25,000 Da (Sigma-Aldrich) according to well dimensions. DNA: PEI (0.5% v/v) ratio was 1:1. At 24 hours after the transfection the DMEM complete medium supplemented with 10% FBS was changed with DMEM supplemented with charcoal stripped FBS and cells were treated with vehicle (ethanol) or 10 nM DHT and harvested for the different analysis 24 h after the treatment. For the pharmacological inhibition, we treated cells with the LSD1 catalytic inhibitor tranylcypromine (TCP) and the PRMT inhibitor adenosine dialdehyde (AdOx) both at a final concentration of 10 μM, instead for the selective LSD1 inhibitor SP-2509, we used it at a final concentration of 100 nm. MN-1 cells were transfected with Lipofectamine 2000 according to manufacturer instructions (Thermo Fisher). MN1 and LNCaP cells were transiently transduced with lentiviruses (MOI 30) or transfected with 2 μg DNA using Lipofectamine 2000 CD Transfection Reagent (ThermoFisher Scientific, 12566014). The following day, positively transfected cells were selected with […] Blasticidin (PanReacApplichem, A3784,0025). After 24 hours of selection or at 48 hours post-transduction, cells were induced with 10 nM dihydrotestosterone (DHT) in DMEM or RPMI medium supplemented with 10% charcoal-stripped FBS, 1% pen/strep, and 1% L-glutamine. The SBMA iPSCs were derived and differentiated. iPSCs were maintained on Matrigel (Corning, 354277) coated tissue culture dishes in E8 Flex medium (Thermo Fisher, A2858501). […]

AR100Q mice = conditions: three times a week, from week 4
Experimental: A randomized cohort of male transgenic AR100Q mice and WT siblings was assigned to either control or treated group.
Phenelzine was administered at a dose of 30 mg/Kg in drinking water; three times a week; TCP was administered at a dose of 6 mg/Kg intraperitoneal, three times a week.
Mice were randomized and the operators were blind for genotype and treatment. The phenotype was analyzed by looking at muscle strength with grip strength test.

AR = test: Transcriptional assay in HEK293T cells expressing AR24Q or AR65Q, with LSD1/PRMT6 overexpression or CRISPR silencing; type: cell-based, human; conditions: 16 h, inhibitor 10 μM; for effect of overexpression of LSD1 on AR transactivation: AR24Q and AR65Q with LSD1, DHT 10 nM; for effect of overexpression of PRMT6 on AR transactivation: AR24Q and AR65Q with PRMT6, DHT 10 nM
Experimental: Cell Cultures, Transfection, and Transduction MN1^9 and HEK293T (ATCC) cells were cultured and plated in DMEM complete medium [Dulbecco's Modified Eagle Medium supplemented with 10% fetal bovine serum (FBS), 1% penicillin/streptomycin (pen/strep), and 1% L-glutamine] and LNCaP cells in RPMI complete medium (Gibco Roswell Park Memorial Institute supplemented with 10% FBS, 1% penicillin/streptomycin, and 1% L-glutamine). C2C12 cells were cultured and differentiated to myotubes. Cells were kept in a humidified incubator with 5% CO2 at 37° C. HEK293T cells were transfected with polyethyleneimine (PEI) linear MW 25,000 Da (Sigma-Aldrich) according to well dimensions. DNA: PEI (0.5% v/v) ratio was 1:1. At 24 hours after the transfection the DMEM complete medium supplemented with 10% FBS was changed with DMEM supplemented with charcoal stripped FBS and cells were treated with vehicle (ethanol) or 10 nM DHT and harvested for the different analysis 24 h after the treatment. […] MN-1 cells were transfected with Lipofectamine 2000 according to manufacturer instructions (Thermo Fisher). […] The following day, positively transfected cells were selected with […] Blasticidin (PanReacApplichem, A3784,0025). After 24 hours of selection or at 48 hours post-transduction, cells were induced with 10 nM dihydrotestosterone (DHT) in DMEM or RPMI medium supplemented with 10% charcoal-stripped FBS, 1% pen/strep, and 1% L-glutamine. […] For differentiation stably transfected iPSCs were induced with Neural Induction Medium (NIM) containing […] doxycycline and 10 nM R1881. After 48 hours of doxycycline treatment, motor neurons were dissociated with accutase to single cells and re-plated on PDL/Laminin coated surfaces in Neural Differentiation Medium (NDM) containing […] doxycycline and 10 nM R1881. On day 4, half of the cell culture medium was removed and replaced by Neuron Medium (NM) containing 10 nM R1881.
Luciferase assays were performed. In brief, HEK293T cells were transfected with vectors expressing non-expanded and polyglutamine-expanded AR together with vectors expressing the luciferase reporter gene under the control of a canonical androgen responsive element (ARE-Luc). To normalize data for transfection efficiency, the cells express Renilla reporter gene under the control of the timidine kinase (TK-Ren) transfected with ARE-Luc in a ratio of 1:10. Cells are treated with vehicle and DHT for 16 h and then processed for luciferase assay, as manufacturer's instructions (Promega).

normal AR = test: Transcriptional (ARE-luciferase) assay in HEK293T cells expressing normal AR; type: cell-based, human; conditions: AR24Q, mock-transfected, DHT 10 nM, 16 h, inhibitor 10 μM
Experimental: Cell Cultures, Transfection, and Transduction MN1^9 and HEK293T (ATCC) cells were cultured and plated in DMEM complete medium [Dulbecco's Modified Eagle Medium supplemented with 10% fetal bovine serum (FBS), 1% penicillin/streptomycin (pen/strep), and 1% L-glutamine] and LNCaP cells in RPMI complete medium (Gibco Roswell Park Memorial Institute supplemented with 10% FBS, 1% penicillin/streptomycin, and 1% L-glutamine). C2C12 cells were cultured and differentiated to myotubes. Cells were kept in a humidified incubator with 5% CO2 at 37° C. HEK293T cells were transfected with polyethyleneimine (PEI) linear MW 25,000 Da (Sigma-Aldrich) according to well dimensions. DNA: PEI (0.5% v/v) ratio was 1:1. At 24 hours after the transfection the DMEM complete medium supplemented with 10% FBS was changed with DMEM supplemented with charcoal stripped FBS and cells were treated with vehicle (ethanol) or 10 nM DHT and harvested for the different analysis 24 h after the treatment. […] MN-1 cells were transfected with Lipofectamine 2000 according to manufacturer instructions (Thermo Fisher). […] The following day, positively transfected cells were selected with […] Blasticidin (PanReacApplichem, A3784,0025). […]

AR65Q (human) = AR65Q (human) (UniProt P10275); test: cell-based or functional assay
AR24Q (human) = AR24Q (human) (UniProt P10275); test: cell-based or functional assay
Prmt6 = test: Western blots of PRMT6 in MN1 cells transfected with amiR vectors; type: cell-based, mouse
Experimental: as §1, with “L-glutamine.” for “L-glutamine. The SBMA iPSCs were derived and differentiated. iPSCs were maintained on Matrigel (Corning, 354277) coated tissue culture dishes in E8 Flex medium (Thermo Fisher, A2858501).”
(§2) The protein concentration was measured using the bicinchoninic acid (BCA) assay method (Pierce™ BCA® Protein Assay, Thermo Scientific). […]

Lsd1 = test: Western blots of LSD1 in MN1 cells transfected with amiR vectors; type: cell-based, mouse
Experimental: as §1, with “L-glutamine.” for “L-glutamine. The SBMA iPSCs were derived and differentiated. iPSCs were maintained on Matrigel (Corning, 354277) coated tissue culture dishes in E8 Flex medium (Thermo Fisher, A2858501).”
as §2

Molecule: N[C@@H]1C[C@H]1c1ccccc1 (racemic) [TCP, tranylcypromine]
- polyQ-expanded AR transactivation induced by DHT (polyQ-expanded AR): reduced
- phenotype of AR100Q mice (grip strength normalized to body weight) (AR100Q mice; 6 mg/Kg intraperitoneal): ameliorated
- effect of overexpression of LSD1 on AR transactivation (AR): reduced
- effect of overexpression of PRMT6 on AR transactivation (AR): attenuated
- normal AR transactivation induced by DHT (normal AR): reduced

- AR transactivation (transcriptional assay, HEK293T cells) (AR65Q (human)): 3.4 fold
- AR transactivation (transcriptional assay, HEK293T cells) (AR24Q (human)): 3.1 fold
Molecule: protein arginine methyltransferase 6 (PRMT6) (from UniProt Q96LA8 1-375)

Molecule: Nc1ncnc2c1ncn2C(C=O)OC(C=O)CO (stereo not shown) [AdOx, adenosine dialdehyde]
- polyQ-expanded AR transactivation induced by DHT (polyQ-expanded AR): reduced
- effect of overexpression of LSD1 on AR transactivation (AR): reduced
- effect of overexpression of PRMT6 on AR transactivation (AR): attenuated
- normal AR transactivation induced by DHT (normal AR): reduced

Molecule: NNCCc1ccccc1 [Phenelzine, phenelzine]
- phenotype of AR100Q mice (grip strength normalized to body weight) (AR100Q mice; 30 mg/Kg in drinking water): ameliorated

Molecule: C/C(=N\NC(=O)c1cccc(S(=O)(=O)N2CCOCC2)c1)c1cc(Cl)ccc1O [SP-2509]
- polyQ-expanded AR transactivation (polyQ-expanded AR; inhibitor 100 nM): did not modify

B1: amiR-Prmt6 #6: artificial miRNA targeting mouse Prmt6, oligos SEQ ID NO: 149, 150 (nucleic acid)
chain 1: TGCTGAATCAGACCATGTTGCCTTTCGTTTTGGCCACTGACTGACGAAAGGCAATGGTCTGATT
chain 2: CCTGAATCAGACCATTGCCTTTCGTCAGTCAGTGGCCAAAACGAAAGGCAACATGGTCTGATTC
modifications: expressed or natural sequence
- silencing of Prmt6 (Prmt6): ~ 50%

B2: amiR-Lsd1 #2: artificial miRNA targeting mouse Lsd1, oligos SEQ ID NO: 155, 156 (nucleic acid)
chain 1: TGCTGTTTACTTGTTTGCTGACGACAGTTTTGGCCACTGACTGACTGTCGTCAAAACAAGTAAA
chain 2: CCTGTTTACTTGTTTTGACGACAGTCAGTCAGTGGCCAAAACTGTCGTCAGCAAACAAGTAAAC
modifications: expressed or natural sequence
- silencing of Lsd1 expression (Lsd1): 70%

B3: amiR-Lsd1 #3: artificial miRNA targeting mouse Lsd1, oligos SEQ ID NO: 234, 235 (nucleic acid)
chain 1: TGCTGTTGATGAGAGGTATACATCACGTTTTGGCCACTGACTGACGTGATGTACCTCTCATCAA
chain 2: CCTGTTGATGAGAGGTACATCACGTCAGTCAGTGGCCAAAACGTGATGTATACCTCTCATCAAC
modifications: expressed or natural sequence
- silencing of Lsd1 expression (Lsd1): 70%

B4: amiR-Prmt6 #2: artificial miRNA targeting mouse Prmt6, oligos SEQ ID NO: 141, 142 (nucleic acid)
chain 1: TGCTGCGGAGTAGCACTCGTAGTACAGTTTTGGCCACTGACTGACTGTACTACGTGCTACTCCG
chain 2: CCTGCGGAGTAGCACGTAGTACAGTCAGTCAGTGGCCAAAACTGTACTACGAGTGCTACTCCGC
modifications: expressed or natural sequence
- silencing of Prmt6 (Prmt6): ~ 50%

B5: amiR-Lsd1 #1: artificial miRNA targeting mouse Lsd1, oligos SEQ ID NO: 153, 154 (nucleic acid)
chain 1: TGCTGTTTCTCTGTATTCTACCTTGGGTTTTGGCCACTGACTGACCCAAGGTAATACAGAGAAA
chain 2: CCTGTTTCTCTGTATTACCTTGGGTCAGTCAGTGGCCAAAACCCAAGGTAGAATACAGAGAAAC
modifications: expressed or natural sequence
- silencing of Lsd1 expression (Lsd1): 50%

B6: amiR-Prmt6 #7: artificial miRNA targeting mouse Prmt6, oligos SEQ ID NO: 151, 152 (nucleic acid)
chain 1: TGCTGTATTAGATTAGAGTGCTCGCGGTTTTGGCCACTGACTGACCGCGAGCACTAATCTAATA
chain 2: CCTGTATTAGATTAGTGCTCGCGGTCAGTCAGTGGCCAAAACCGCGAGCACTCTAATCTAATAC
modifications: expressed or natural sequence
- silencing of Prmt6 (Prmt6): ~ 50%
